In patent US6309882A, “Antisense inhibition of replication protein a p70 subunit” (ISIS Pharmaceuticals, Inc., priority 1999, dated 2001):

Legend:
Assay type in all cases: cell-based, human
[1] = tested on: Mia Paca II cells; test: Mia Paca II cell survival, Sulforhodamine B staining; settings: for % Cell Killing / % Cell Survival: Mia Paca II, SRB, 6 days
Procedure: Cells were transfected with matched, mismatched, or non-allele specific anti-RPA70 (ISIS 12790) oligonucleotides as described above. Following transfection, the cells were allowed to recover either three days (HeLa cells) or 6 days (Mia Paca II cells). The number of cells remaining attached to the tissue culture dish was quantified by Sulforhodamine B (SRB) staining (FluoReporter Colorimetric Cell Protein Assay Kit, Molecular probes).
However, at 400 nM, there was a statistically significant difference in survival with less survival seen in cells treated with the matched oligonucleotide,VAR 13085, than the mismatched oligonucleotide, ISIS 12781 (p=0.02). At 400 nM, there was a 4.6 fold difference in cell survival between matched and mismatched oligonucleotides. […] The IC50 for inhibition of Mia Paca II cell survival was similar to that for suppression of RPA70 mRNA for both VAR 13085 and ISIS 12790. The effect of antisense treatment on cell survival for both cell lines appears to be cytotoxic rather than cytostatic as the absolute number of cells decreases for both cell lines when treated with matched antisense oligonucleotides.

[2] = tested on: A549 cells; test: Tumor cell survival, cell number by hemocytometer; settings: A549, 400 nM, 72 hours
Procedure: (§1) To determine the effects of ISIS 12790 on tumor cell survival, T24, A549, Mia Paca II, and SW480 cells were treated with either ISIS 12790 or ISIS 13706 (a 20-mer with identical nucleotide composition but containing 7 mismatches relative to the target) and surviving cells counted 72 hours later.
(§2) For experiments where cell number was measured directly by hemocytometer, cells were plated in six well dishes 24 hr prior to the experiment and transfected at approximately 50-70% confluency with various phosphorothioate oligonucleotides at 400 nM, as described above. Following a single transfection, the cells were allowed to recover 72 hours. After 72 hr the cells were washed, trypsinized, and cell number was determined by hemocytometer. For each experiment, treatments were performed in triplicate wells. The number of cells corresponding to each well was determined twice.
(§3) Statistical analysis of mRNA levels and cell survival data were performed using BMDP Statistical package, Version 7.0 (BMDP Statistical Software, Inc., Los Angeles, Calif.). Data were subjected to ANOVA and the results were expressed in terms of F-values, t-values, and significance. For cell survival data, analyses included repeated measurements with 3 between factors (drug, concentration, and position). For mRNA levels only the 3 between factors were considered. Global comparisons were performed with F-tests and pairwise comparisons with t-tests. In each case, since there was no interaction with position, results were pooled and analyzed with two between factors (drug and concentration). Treatment with ISIS 12790 was associated with decreased cell number in all four tumor cell lines (see Table 4). The decrease in cell number observed in T24 cells was 79%. The decrease observed in the other three cell lines was: A549, 98% decrease; Mia Paca II, 85% decrease; SW480, 81% decrease.

[3] = tested on: Mia Paca II cells; test: Tumor cell survival, cell number by hemocytometer; settings: 400 nM, 72 hours
Procedure: as §1, §2, §3

[4] = tested on: SW480 cells; test: Tumor cell survival, cell number by hemocytometer; settings: SW480, 400 nM, 72 hours
Procedure: as §1, §2, §3

[5] = tested on: T24 cells; test: Tumor cell survival, cell number by hemocytometer; settings: T24, 400 nM, 72 hours
Procedure: as §1, §2, §3

## ISIS 12790: phosphorothioate oligodeoxynucleotide TGGTCTGCAGTTAGGGTCAG, SEQ ID NO 15, 3'-UTR 2230-2249, non-allele specific (DNA, all phosphorothioate, methylation of C not given here)
[1]; Mia Paca II cells
  effect on cell survival: dose-dependent decrease in the number of surviving cells
[1]; Mia Paca II cells, read-out: IC50 for decrease in cell survival
  IC50: < 100 nM
[1]; 50 nM
  % Cell Killing: 39%
  % Cell Survival: 61%
[1]; 100 nM
  % Cell Killing: 86%
  % Cell Survival: 14%
[1]; 200 nM
  % Cell Killing: 94%
  % Cell Survival: 6%
[1]; 400 nM
  % Cell Killing: 88%
  % Cell Survival: 12%
[2]
  % Cell Killing: 98%
  % Cell Survival: 2%
  decrease in cell number: 98%
[3]
  decrease in cell number: 85%
[4]
  % Cell Killing: 81%
  % Cell Survival: 19%
  decrease in cell number: 81%
[5]
  % Cell Killing: 79%
  % Cell Survival: 21%
  decrease in cell number: 79%
